Test results as given in ChEMBL document CHEMBL4819081 (Eur J Med Chem, 2021).

Legend:
NCI-H1299 = experiment: Antiproliferative activity against human NCI-H1299 cells assessed as reduction in cell viability after 72 hrs by MTT assay; assay type: functional, cell-based; settings: NCI-H1299, 72 h
MDA-MB-231 = experiment: Antiproliferative activity against human MDA-MB-231 cells assessed as reduction in cell viability after 72 hrs by MTT assay; assay type: functional, cell-based; settings: MDA-MB-231, 72 h
MDA-MB-453 = experiment: Antiproliferative activity against human MDA-MB-453 cells assessed as reduction in cell viability after 72 hrs by MTT assay; assay type: functional, cell-based; settings: MDA-MB-453, 72 h
MCF7 = experiment: Antiproliferative activity against human MCF7 cells assessed as reduction in cell viability after 72 hrs by MTT assay; assay type: functional, cell-based; settings: MCF7, 72 h
[1] = target: T1, Cyclin-dependent kinase 4/cyclin D1 (Homo sapiens) (UniProt P11802+P24385); experiment: Inhibition of CDK4/Cyclin D1 (unknown origin) at 200 nM using ATP by mobility shift assay; assay type: protein-complex assay
[2] = target: T1, Cyclin-dependent kinase 4/cyclin D1 (Homo sapiens); experiment: Inhibition of CDK4/Cyclin D1 (unknown origin) at 20 nM using ATP by mobility shift assay; assay type: protein-complex assay
[3] = target: T2, CDK6/cyclin D3 (Homo sapiens) (UniProt P30281+Q00534); experiment: Inhibition of CDK6/Cyclin D3 (unknown origin) at 200 nM using ATP by mobility shift assay; assay type: protein-complex assay
[4] = target: T2, CDK6/cyclin D3 (Homo sapiens); experiment: Inhibition of CDK6/Cyclin D3 (unknown origin) at 20 nM using ATP by mobility shift assay; assay type: protein-complex assay

SMILES	IC50 (NCI-H1299)	IC50 (MDA-MB-231)	IC50 (MDA-MB-453)	IC50 (MCF7)	inhibition [1]	inhibition [2]	inhibition [3]	inhibition [4]
C=CC(=O)NCCOCCOCCNC(=O)CCN1CCN(c2ccc(Nc3ncc4c(C)c(C(C)=O)c(=O)n(C5CCCC5)c4n3)nc2)CC1	> 20 µM	> 20 µM	8.19 µM	> 20 µM				
CC(=O)c1c(C)c2cnc(Nc3ccc(N4CCN(CCC(=O)NCCOCCNCC#N)CC4)cn3)nc2n(C2CCCC2)c1=O	> 20 µM	> 20 µM	> 20 µM	> 20 µM				
CC(=O)c1c(C)c2cnc(Nc3ccc(N4CCN(CCC(=O)NCCOCCOCCNCC#N)CC4)cn3)nc2n(C2CCCC2)c1=O	> 20 µM	> 20 µM	> 20 µM	> 20 µM				
CC(=O)c1c(C)c2cnc(Nc3ccc(N4CCN(CC(=O)NCCCNCC#N)CC4)cn3)nc2n(C2CCCC2)c1=O	19.2 µM	> 20 µM	15.5 µM	> 20 µM				
C=CC(=O)NCCCCNC(=O)CN1CCN(c2ccc(Nc3ncc4c(C)c(C(C)=O)c(=O)n(C5CCCC5)c4n3)nc2)CC1	> 20 µM	> 20 µM	> 20 µM	> 20 µM				
C=CC(=O)NCCOCCNC(=O)CN1CCN(c2ccc(Nc3ncc4c(C)c(C(C)=O)c(=O)n(C5CCCC5)c4n3)nc2)CC1	> 20 µM	> 20 µM	15.4 µM	> 20 µM				
C=CC(=O)NCCOCCNC(=O)CCN1CCN(c2ccc(Nc3ncc4c(C)c(C(C)=O)c(=O)n(C5CCCC5)c4n3)nc2)CC1	> 20 µM	> 20 µM	5.25 µM	> 20 µM				
C=CC(=O)NCCNC(=O)CN1CCN(c2ccc(Nc3ncc4c(C)c(C(C)=O)c(=O)n(C5CCCC5)c4n3)nc2)CC1	> 20 µM	18.7 µM	> 20 µM	> 20 µM				
CC(=O)c1c(C)c2cnc(Nc3ccc(N4CCN(CC(=O)NCCOCCNC(=O)CCl)CC4)cn3)nc2n(C2CCCC2)c1=O	16.1 µM	> 20 µM	3.55 µM	4.25 µM	92.7%	61.4%	102%	76.7%
CC(=O)c1c(C)c2cnc(Nc3ccc(N4CCN(CCC(=O)NCCOCCOCCNC(=O)CCl)CC4)cn3)nc2n(C2CCCC2)c1=O	> 20 µM	8.92 µM	9.2 µM	15.8 µM				
CC(=O)c1c(C)c2cnc(Nc3ccc(N4CCN(CCC(=O)NCCOCCNC(=O)CCl)CC4)cn3)nc2n(C2CCCC2)c1=O	> 20 µM	> 20 µM	6.11 µM	11.5 µM	94.4%	60.5%	103%	91.2%
CC(=O)c1c(C)c2cnc(Nc3ccc(N4CCN(CCC(=O)NCCCCCCNC(=O)CCl)CC4)cn3)nc2n(C2CCCC2)c1=O	> 20 µM	> 20 µM	> 20 µM	> 20 µM				
CC(=O)c1c(C)c2cnc(Nc3ccc(N4CCN(CCC(=O)NCCCNCC#N)CC4)cn3)nc2n(C2CCCC2)c1=O	> 20 µM	> 20 µM	> 20 µM	> 20 µM				
CC(=O)c1c(C)c2cnc(Nc3ccc(N4CCN(CC(=O)NCCNCC#N)CC4)cn3)nc2n(C2CCCC2)c1=O	> 20 µM	> 20 µM	9.89 µM	> 20 µM				
C=CC(=O)NCCNC(=O)CCN1CCN(c2ccc(Nc3ncc4c(C)c(C(C)=O)c(=O)n(C5CCCC5)c4n3)nc2)CC1	> 20 µM	> 20 µM	> 20 µM	> 20 µM				
CC(=O)c1c(C)c2cnc(Nc3ccc(N4CCN(CCC(=O)NCCNC(=O)CCl)CC4)cn3)nc2n(C2CCCC2)c1=O	> 20 µM	> 20 µM	> 20 µM	> 20 µM				
CC(=O)c1c(C)c2cnc(Nc3ccc(N4CCN(CC(=O)NCCOCCOCCNCC#N)CC4)cn3)nc2n(C2CCCC2)c1=O	> 20 µM	> 20 µM	> 20 µM	> 20 µM				
CC(=O)c1c(C)c2cnc(Nc3ccc(N4CCN(CC(=O)NCCCCNCC#N)CC4)cn3)nc2n(C2CCCC2)c1=O	> 20 µM	> 20 µM	> 20 µM	> 20 µM				
C=CC(=O)N1CCN(c2ccc(Nc3ncc4c(C)c(C(C)=O)c(=O)n(C5CCCC5)c4n3)nc2)CC1	8.5 µM	> 20 µM	6.96 µM	> 20 µM				
CC(=O)c1c(C)c2cnc(Nc3ccc(N4CCN(CCC(=O)NCCCCNC(=O)CCl)CC4)cn3)nc2n(C2CCCC2)c1=O	> 20 µM	> 20 µM	7.01 µM	16.6 µM	92%	52.1%	100%	89.2%

SMILES	IC50 (NCI-H1299)	IC50 (MDA-MB-231)	IC50 (MDA-MB-453)	IC50 (MCF7)	inhibition [1]	inhibition [2]	inhibition [3]	inhibition [4]
CC(=O)c1c(C)c2cnc(Nc3ccc(N4CCN(CCC(=O)NCCCNC(=O)CCl)CC4)cn3)nc2n(C2CCCC2)c1=O	7.41 µM	9.67 µM	1.96 µM	5.48 µM	93.1%	65.5%	96.4%	79%
C=CC(=O)NCCCCCCNC(=O)CCN1CCN(c2ccc(Nc3ncc4c(C)c(C(C)=O)c(=O)n(C5CCCC5)c4n3)nc2)CC1	> 20 µM	> 20 µM	> 20 µM	> 20 µM				
CC(=O)c1c(C)c2cnc(Nc3ccc(N4CCN(CC(=O)NCCOCCOCCNC(=O)CCl)CC4)cn3)nc2n(C2CCCC2)c1=O	> 20 µM	> 20 µM	> 20 µM	> 20 µM				
CCC(=O)N1CCN(c2ccc(Nc3ncc4c(C)c(C(C)=O)c(=O)n(C5CCCC5)c4n3)nc2)CC1	> 50 µM	142 µM	71.5 µM	25.7 µM	91.4%	43%	103%	69.8%
CC(=O)c1c(C)c2cnc(Nc3ccc(N4CCN(CC(=O)NCCCNC(=O)CCl)CC4)cn3)nc2n(C2CCCC2)c1=O	7.41 µM	7.8 µM	1.92 µM	5.22 µM	91.7%	56.9%	101%	92.1%
CC(=O)c1c(C)c2cnc(Nc3ccc(N4CCN(CC#N)CC4)cn3)nc2n(C2CCCC2)c1=O	> 20 µM	17.9 µM	> 20 µM	> 20 µM				
C=CC(=O)NCCOCCOCCNC(=O)CN1CCN(c2ccc(Nc3ncc4c(C)c(C(C)=O)c(=O)n(C5CCCC5)c4n3)nc2)CC1	> 20 µM	> 20 µM	10.2 µM	> 20 µM				
CC(=O)c1c(C)c2cnc(Nc3ccc(N4CCN(CCC(=O)NCCNCC#N)CC4)cn3)nc2n(C2CCCC2)c1=O	> 20 µM	> 20 µM	> 20 µM	> 20 µM				
CC(=O)c1c(C)c2cnc(Nc3ccc(N4CCN(CCC(=O)NCCCCCCNCC#N)CC4)cn3)nc2n(C2CCCC2)c1=O	> 20 µM	> 20 µM	> 20 µM	> 20 µM				
C=CC(=O)NCCCCCCNC(=O)CN1CCN(c2ccc(Nc3ncc4c(C)c(C(C)=O)c(=O)n(C5CCCC5)c4n3)nc2)CC1	> 20 µM	14.8 µM	> 20 µM	> 20 µM				
C=CC(=O)NCCCNC(=O)CCN1CCN(c2ccc(Nc3ncc4c(C)c(C(C)=O)c(=O)n(C5CCCC5)c4n3)nc2)CC1	> 20 µM	18.3 µM	> 20 µM	> 20 µM				
CC(=O)c1c(C)c2cnc(Nc3ccc(N4CCN(C(C)=O)CC4)cn3)nc2n(C2CCCC2)c1=O	> 50 µM	> 50 µM	> 50 µM	> 50 µM	87.8%	43.2%	100%	68.5%
CC(=O)c1c(C)c2cnc(Nc3ccc(N4CCN(CCC(=O)NCCCCNCC#N)CC4)cn3)nc2n(C2CCCC2)c1=O	8.42 µM	12.5 µM	12.8 µM	> 20 µM				
C=CC(=O)NCCCNC(=O)CN1CCN(c2ccc(Nc3ncc4c(C)c(C(C)=O)c(=O)n(C5CCCC5)c4n3)nc2)CC1	> 20 µM	18 µM	> 20 µM	> 20 µM				
CC(=O)c1c(C)c2cnc(Nc3ccc(N4CCN(CC(=O)NCCCCCCNCC#N)CC4)cn3)nc2n(C2CCCC2)c1=O	> 20 µM	> 20 µM	> 20 µM	> 20 µM				
CC(=O)c1c(C)c2cnc(Nc3ccc(N4CCN(CC(=O)NCCCCNC(=O)CCl)CC4)cn3)nc2n(C2CCCC2)c1=O	> 20 µM	8.32 µM	8.93 µM	12.4 µM	94.8%	63%	104%	82.9%
CC(=O)c1c(C)c2cnc(Nc3ccc(N4CCN(CC(=O)NCCNC(=O)CCl)CC4)cn3)nc2n(C2CCCC2)c1=O	> 20 µM	10.2 µM	7.6 µM	2.39 µM	93.4%	60.8%	104%	81.6%
CC(=O)c1c(C)c2cnc(Nc3ccc(N4CCN(CC(=O)NCCOCCNCC#N)CC4)cn3)nc2n(C2CCCC2)c1=O	> 20 µM	> 20 µM	> 20 µM	> 20 µM				
C=CC(=O)NCCCCNC(=O)CCN1CCN(c2ccc(Nc3ncc4c(C)c(C(C)=O)c(=O)n(C5CCCC5)c4n3)nc2)CC1	> 20 µM	> 20 µM	> 20 µM	> 20 µM				
